In ChEMBL document CHEMBL1138967, “Design, synthesis, and biological evaluation of novel tricyclic HIV-1 integrase inhibitors by modification of its pyridine ring” (Bioorg Med Chem Lett, 2006) one finds CC50, IC50 and EC50 data, which are given here for eight molecules.

One test deals with MT4. The test is described as follows: Cytotoxicity against MT4 cells. It counts as functional. The note with it: Homo sapiens.
For test [1], the target named is Human immunodeficiency virus type 1 integrase (Human immunodeficiency virus 1, UniProt Q7ZJM1). Briefly: Inhibition of strand transfer activity in HIV1 integrase.
Test [2] has as its system Human immunodeficiency virus 1. Briefly: Antiviral activity against HIV1 3B in MT4 cells. The class given is functional, organism-based. The note with it: Human immunodeficiency virus 1, 3B.

Molecules are shown by their SMILES.

What is called CC50 is the concentration giving 50% cytotoxicity. Lower therefore signals harm at low concentration. For orientation: IC50 means the concentration that gives 50% inhibition. Lower therefore signals greater potency in that assay. One may read the EC50 as the concentration giving half of the maximal effect. Read a low EC50 as higher potency in that assay.

Human immunodeficiency virus type 1 integrase, sequence (Q7ZJM1 whole entry): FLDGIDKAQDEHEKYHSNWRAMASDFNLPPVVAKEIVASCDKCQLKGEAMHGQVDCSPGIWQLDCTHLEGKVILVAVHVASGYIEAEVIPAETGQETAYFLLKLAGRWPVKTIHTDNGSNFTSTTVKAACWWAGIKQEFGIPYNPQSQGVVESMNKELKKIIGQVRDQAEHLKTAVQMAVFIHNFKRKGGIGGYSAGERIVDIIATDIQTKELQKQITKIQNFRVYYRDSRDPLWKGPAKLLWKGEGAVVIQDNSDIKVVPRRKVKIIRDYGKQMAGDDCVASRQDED

Regarding `COc1c2c(c(O)c3ncccc13)C(=O)N(Cc1ccc(F)cc1)C2`, half-maximal cytotoxicity with MT4 (CC50) was put at 5.1 µM. In other words, the single-digit micromolar range.
In test [1], `COc1c2c(c(O)c3nccnc13)C(=O)N(Cc1ccc(F)cc1)C2` came in with an IC50 of 0.21 µM. Also, a half-maximal response in test [2] (EC50) required 3.55 µM. The CC50 in the test on MT4 is 87 µM.
With `COc1c2c(c(O)c3ncc(F)cc13)C(=O)N(Cc1ccc(F)cc1)C2`, the results for the IC50 in test [1] and in test [2] were 0.0072 µM and 1.54 µM, respectively. In the test on MT4, the CC50 was 33.3 µM.
In test [1], `CN(C)S(=O)(=O)Oc1c2c(c(O)c3nccnc13)C(=O)N(Cc1ccc(F)cc1)C2` returned an IC50 of 0.033 µM. This molecule registered an EC50 in test [2] of 0.54 µM. The same molecule came in with a CC50 with MT4 of 2.7 µM.
As for `COc1c2c(c(O)c3ncn(Cc4ccccc4)c13)C(=O)N(Cc1ccc(F)cc1)C2`, the figures for the IC50 in test [1] and in test [2] were 24 µM and > 10 µM, respectively. The molecule also came in with a CC50 in the test on MT4 of 25 µM.
Molecule `CN(C)S(=O)(=O)Oc1c2c(c(O)c3ncccc13)C(=O)N(Cc1ccc(F)cc1)C2` registered an EC50 in test [2] of 0.007 µM. In addition, it took 1.4 µM to reach half-maximal cytotoxicity in the test on MT4 (CC50).
Turning to `COc1c2c(c(O)c3c1NCCN3)C(=O)N(Cc1ccc(F)cc1)C2`, the IC50 in test [1] is 0.85 µM; in test [2], > 10 µM.
`COc1cnc2c(O)c3c(c(OC)c2c1)CN(Cc1ccc(F)cc1)C3=O`: in test [1], the IC50 was 0.093 µM. Also, the EC50 in test [2] amounted to 0.07 µM. This molecule also displayed a CC50 with MT4 of 2.1 µM.
